Columns and labels:
[1] = tested on: reconstructed human vascular media (RHVM); assay: Contraction of RHVM rings in response to cumulative doses of histamine (myograph, isometric tension); assay type: cell-based; conditions: 21 days of maturation, FIG. 9
Experimental: (§1) Reconstructed human vascular media (RHVM) were prepared for the control tissue construct (not aligned) as described in Example I. The RHVM used for this example were treated as follow: RHVM cultured in medium described above represent the control condition (non-treated RHVM) and RHVM supplemented with cell proliferation inhibitors, heparin or olomoucine (treated RHVM).
To assess the contractile function of RHVM which were treated or not (control condition), RHVM rings of 5-7 mm in length were removed from the tubular support used for culture after 21 days of maturation. Rings were mounted in a myograph and challenged in the presence of cumulative doses of histamine, a vasoactive agent. Isometric tension generated by RHVM contraction was directly recorded via a force transducer (Kilster-Morse, DSG BE4).

[2] = tested on: smooth muscle cells present in reconstructed human vascular media; assay: Immunolabeled differentiation markers of smooth muscle cells in RHVM; assay type: cell-based; conditions: FIG. 10
Experimental: as §1

heparin
contraction of RHVM cultured with the cell proliferation inhibitor vs control RHVM ([1]; higher doses of histamine, 10^−5 and 10^−4 M): significantly greater contraction | contraction of RHVM cultured with the cell proliferation inhibitor vs non-treated RHVM ([1]; low dose of histamine (10^−6 M)): no significant difference of contraction | expression of differentiation markers in cells cultured with the inhibitor vs without [2]: increased
